The conditions of assay [1]: cited from earlier work; for induction of tolerance: administered in solution.
Another assay deals with T1, I-A^S (Mus musculus, UniProt P06345+P14437).
T1 sequence (P14437 1-233): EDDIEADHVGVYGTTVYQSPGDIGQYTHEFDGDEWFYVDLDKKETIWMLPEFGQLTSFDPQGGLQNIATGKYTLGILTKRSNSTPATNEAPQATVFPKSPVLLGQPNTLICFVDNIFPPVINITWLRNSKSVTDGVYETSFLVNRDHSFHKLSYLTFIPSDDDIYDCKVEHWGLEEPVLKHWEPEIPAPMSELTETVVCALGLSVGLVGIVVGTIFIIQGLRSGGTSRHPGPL
T1 sequence (P06345 28-263): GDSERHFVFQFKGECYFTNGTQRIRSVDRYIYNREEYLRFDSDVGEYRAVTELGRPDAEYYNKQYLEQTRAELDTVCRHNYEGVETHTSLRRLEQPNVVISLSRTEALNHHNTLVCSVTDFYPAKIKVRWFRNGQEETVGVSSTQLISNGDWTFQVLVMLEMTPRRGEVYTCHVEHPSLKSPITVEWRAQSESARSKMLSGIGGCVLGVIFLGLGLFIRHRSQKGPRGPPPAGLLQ
To be noted: cited from earlier work.

Another assay deals with T cell clone MS60:D2. Kind of assay: Presentation of nested MBP peptides by fixed APC (Mgar cells) to T cell clone MS60:D2, proliferation assay. Type of assay: cell-based, human. To be noted: p-formaldehyde fixed Mgar (HLA-DR2+ve) cells, T cell clone MS60:D2, 3H-thymidine uptake, FIG. 1.
Assay [2] relates to lymph node cells of HLA:DR2 transgenic mice. Kind of assay: Induction of tolerance in HLA:DR2 transgenic mouse, lymph node proliferation assay. Type of assay: in vivo.
In a further assay the test system is T cell clone N5. The assay can be described thus: Presentation of MBP peptide 140-154 by fixed APC to T cell clone N5, proliferation assay. Format: cell-based, human. To be noted: T cell clone N5, FIG. 2. How it is done: MBP-specific T cell lines (TCL) are generated from 8 MS patients and 2 healthy control donors. PBMC from each subject are separated as described above and plated out at 1×10^6 cells/ml in 6-well plates in the presence of MBP (50 μg/ml); a portion of PBMC from each subject is regularly frozen and stored for subsequent restimulations. Seven days later the cells are fed with fresh medium containing 2% IL-2 (Lymphocult-HT; Biotest LTD., Birmingham, UK), and on day 12 of culture all cells are restimulated with antigen, IL-2 and irradiated (2500 Rad) autologous PBMC as a source of antigen presenting cells (APC), at a cell ratio of 1T cell:5 APC. Cells are expanded in IL-2 every 3-4 days, and on day 14 are restimulated with antigen, IL-2 and PBMC, as described above. On the day of the first restimulation cells are examined for specific proliferation to MBP. Briefly, 2×10^4 T cells and 1×10^5 irradiated autologous PBMC are cultured in triplicate, in 96-well round-bottom plates, in the presence of MBP. […]
Live or p-formaldehyde fixed Mgar (HLA-DR2+ve) cells were incubated with peptides in serum or in serum alone, together with T cells. The T cell proliferative response was measured by ^3H-thymidine uptake as follows. […] [^3H]-Thymidine incorporation is determined using a Microbeta liquid scintillation counter (LKB-Wallac). […]

Like-named read-outs stand apart in the source and are kept apart here.

Consider “MBP[89-101]: myelin basic protein (MBP) peptide 89-101, an immunodominant antigen after immunisation (PHLIRLFSRDAPG; UniProt P04370 89-101, looked up, fragment)”, for which the results for the induction of tolerance result in assay [1] and in assay [1] (listed as 89-101) were “not tolerogenic” and “ineffective at inducing tolerance”, respectively. Further, in assay [1] (after immunisation), the “immunogenicity (priming for T cell reactivity and induction of EAE)” value is reported as “very effective immunogen”. Moreover, the “affinity of binding to I-A^S” value with I-A^S is “relatively high affinity”. As to “HKGFKGVDAQGTLSK (listed as Homo sapiens) [MBP 138-152, myelin basic protein peptide 138-152]”, in the assay with T cell clone MS60:D2, the “presentation by fixed APC to T cells without further processing (apitope)” value was “apitopes”. In the case of “KGFKGVDAQGTLSKI (listed as Homo sapiens) [MBP 139-153, myelin basic protein peptide 139-153]”, the “presentation by fixed APC to T cells without further processing (apitope)” value in the assay with T cell clone MS60:D2 was “apitopes”. Same read-out and setting: to “SAHKGFKGVDAQGTL (listed as Homo sapiens) [MBP 136-150, myelin basic protein peptide 136-150]” belongs “apitopes”.

As to “AHKGFKGVDAQGTLS (listed as Homo sapiens) [MBP 137-151, myelin basic protein peptide 137-151]”, the “presentation by fixed APC to T cells without further processing (apitope)” value with T cell clone MS60:D2 was “apitopes”. Consider “YKSAHKGFKGVDAQG (listed as Homo sapiens) [MBP 134-148, myelin basic protein peptide 134-148]”, for which the “presentation by fixed APC to T cells without further processing (apitope)” value in the assay on T cell clone MS60:D2 was “apitopes”.

Turning to “KSAHKGFKGVDAQGT (listed as Homo sapiens) [MBP 135-149, myelin basic protein peptide 135-149]”, the “presentation by fixed APC to T cells without further processing (apitope)” value in the assay on T cell clone MS60:D2 is “apitopes”.

As to “GFKGVDAQGTLSKIF (listed as Homo sapiens) [MBP 140-154, myelin basic protein peptide 140-154]”, the “presentation by fixed APC to T cells without further processing (apitope)” value in the assay with T cell clone MS60:D2 is recorded as “apitopes”. The “SI values of the one pre-treated mouse that failed to show induction of tolerance” value in assay [2] (Group B, over peptide concentration range 1-150 ugml^-1) is on record as 12-15. The “Stimulation Index (SI) median of lymphocyte proliferation” value in assay [2] (Group B: 100 ug peptide i.n. days -8, -6, -4, immunised with same peptide in CFA, restimulated with 150 ugml^-1 peptide) is 3. In addition, the induction of tolerance entry in assay [2] (intranasal pre-treatment, lymphocytes from HLA-DR2 mice) was “induced tolerance”. Besides, in the assay on T cell clone N5, the “presentation by fixed APC without further processing” value is recorded as “can be presented by fixed APC without further processing”.

(Values after US7071297B2, “Tolerogenic peptides from myelin basic protein” (Apitope Technology (Bristol) Limited, priority 2002, dated 2006).)
